What was measured:
Assay type in all cases: biochemical
Lck = biological target: T1, Lck (Homo sapiens, UniProt P06239); test: Kinase inhibition assay (33P transfer), Lck; conditions: Table 3; read-out: Lck-1
T1 construct: Kinases are expressed as either kinase domains or full length constructs; made in house
Method in brief: (§1)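 GST/His-tagged kinase (domain or full length; E. coli or baculovirus) + [33P]ATP on plates coated with poly(Glu,Tyr) 4:1 or poly(Arg,Ser) 3:1; incubate, wash 0.5% H3PO4, add scintillant, count.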

Lyn = biological target: T2, Lyn (Homo sapiens, UniProt P07948); test: Kinase inhibition assay (33P transfer), Lyn; conditions: Table 6, Lyn-1 kinase inhibition class
T2 construct: Kinases are expressed as either kinase domains or full length constructs; made in house
Method in brief: (§2)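 Kinase domains or full-length enzymes, GST- or polyHis-tagged, were expressed in E. coli or baculovirus High Five cells and affinity-purified. Transfer of 33PO4 from ATP onto plate-bound poly(Glu,Tyr) 4:1 or poly(Arg,Ser) 3:1 was counted by liquid scintillation after a 0.5% phosphoric acid wash. IC50 = concentration halving incorporation.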

Zap-70 = biological target: T3, Zap-70 (Homo sapiens, UniProt P43403); test: Kinase inhibition assay (33P transfer), Zap-70; conditions: Table 3; read-out: Zap-1
T3 construct: Kinases are expressed as either kinase domains or full length constructs; made in house
T3 sequence (P43403 1-619): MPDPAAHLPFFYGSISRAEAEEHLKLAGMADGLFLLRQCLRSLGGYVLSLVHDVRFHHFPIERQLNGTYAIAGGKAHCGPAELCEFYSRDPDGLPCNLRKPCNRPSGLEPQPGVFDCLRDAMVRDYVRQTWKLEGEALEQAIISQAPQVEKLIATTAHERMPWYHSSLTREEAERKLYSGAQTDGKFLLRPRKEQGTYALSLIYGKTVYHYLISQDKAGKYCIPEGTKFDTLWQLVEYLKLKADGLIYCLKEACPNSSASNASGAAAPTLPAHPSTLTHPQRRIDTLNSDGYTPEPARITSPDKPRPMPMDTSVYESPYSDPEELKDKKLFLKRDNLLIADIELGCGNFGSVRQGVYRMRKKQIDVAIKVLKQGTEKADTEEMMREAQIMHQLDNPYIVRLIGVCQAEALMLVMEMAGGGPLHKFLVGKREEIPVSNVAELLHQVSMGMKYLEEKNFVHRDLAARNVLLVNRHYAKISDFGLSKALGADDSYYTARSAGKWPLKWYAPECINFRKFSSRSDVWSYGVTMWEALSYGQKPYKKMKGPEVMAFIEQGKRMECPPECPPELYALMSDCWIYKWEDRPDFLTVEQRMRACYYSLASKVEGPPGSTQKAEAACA
Method in brief: as §1

Kdr = biological target: T4, Kdr (Homo sapiens, UniProt P35968); test: Kinase inhibition assay (33P transfer), Kdr; conditions: Table 3; read-out: KDR-1
T4 construct: Kinases are expressed as either kinase domains or full length constructs; made in house
Method in brief: as §1

Flt-1 = biological target: T5, Flt-1 (Homo sapiens, UniProt P17948); test: Kinase inhibition assay (33P transfer), Flt-1
T5 construct: Kinases are expressed as either kinase domains or full length constructs; made in house
Method in brief: as §2

c-Met = biological target: T6, c-Met (Homo sapiens, UniProt P08581); test: Kinase inhibition assay (33P transfer), c-Met; conditions: Table 2, kinase inhibition class; read-out: Met-1
T6 construct: Kinases are expressed as either kinase domains or full length constructs; made in house
Method in brief: as §2

AKT = biological target: T7, AKT (Homo sapiens, UniProt Q9Y243); test: Kinase inhibition assay (33P transfer), AKT; conditions: Table 2, kinase inhibition class; read-out: AKT3-1
T7 construct: Kinases are expressed as either kinase domains or full length constructs; made in house
Method in brief: as §1

IGFR-1 = biological target: T8, IGFR-1 (Homo sapiens, UniProt P08069); test: Kinase inhibition assay (33P transfer), IGFR-1; conditions: Table 2, kinase inhibition class
T8 construct: Kinases are expressed as either kinase domains or full length constructs; made in house

PDGFRB = biological target: T9, PDGFRB (Homo sapiens, UniProt P09619); test: Kinase inhibition assay (33P transfer), PDGFRB; conditions: read-out: PDGFRB-1
T9 construct: Kinases are expressed as either kinase domains or full length constructs; made in house

Hck-1 = biological target: T10, Hck-1 (Homo sapiens, UniProt P08631); test: Kinase inhibition assay (33P transfer), Hck; conditions: Table 6, Hck-1 kinase inhibition class
T10 construct: Kinases are expressed as either kinase domains or full length constructs; made in house

FGFR1 = biological target: T11, FGFR1 (Homo sapiens, UniProt P11362); test: Kinase inhibition assay (33P transfer), FGFR1; conditions: read-out: FGFR1-1
T11 construct: Kinases are expressed as either kinase domains or full length constructs; made in house

T9 sequence (P09619 33-1106, species assumed): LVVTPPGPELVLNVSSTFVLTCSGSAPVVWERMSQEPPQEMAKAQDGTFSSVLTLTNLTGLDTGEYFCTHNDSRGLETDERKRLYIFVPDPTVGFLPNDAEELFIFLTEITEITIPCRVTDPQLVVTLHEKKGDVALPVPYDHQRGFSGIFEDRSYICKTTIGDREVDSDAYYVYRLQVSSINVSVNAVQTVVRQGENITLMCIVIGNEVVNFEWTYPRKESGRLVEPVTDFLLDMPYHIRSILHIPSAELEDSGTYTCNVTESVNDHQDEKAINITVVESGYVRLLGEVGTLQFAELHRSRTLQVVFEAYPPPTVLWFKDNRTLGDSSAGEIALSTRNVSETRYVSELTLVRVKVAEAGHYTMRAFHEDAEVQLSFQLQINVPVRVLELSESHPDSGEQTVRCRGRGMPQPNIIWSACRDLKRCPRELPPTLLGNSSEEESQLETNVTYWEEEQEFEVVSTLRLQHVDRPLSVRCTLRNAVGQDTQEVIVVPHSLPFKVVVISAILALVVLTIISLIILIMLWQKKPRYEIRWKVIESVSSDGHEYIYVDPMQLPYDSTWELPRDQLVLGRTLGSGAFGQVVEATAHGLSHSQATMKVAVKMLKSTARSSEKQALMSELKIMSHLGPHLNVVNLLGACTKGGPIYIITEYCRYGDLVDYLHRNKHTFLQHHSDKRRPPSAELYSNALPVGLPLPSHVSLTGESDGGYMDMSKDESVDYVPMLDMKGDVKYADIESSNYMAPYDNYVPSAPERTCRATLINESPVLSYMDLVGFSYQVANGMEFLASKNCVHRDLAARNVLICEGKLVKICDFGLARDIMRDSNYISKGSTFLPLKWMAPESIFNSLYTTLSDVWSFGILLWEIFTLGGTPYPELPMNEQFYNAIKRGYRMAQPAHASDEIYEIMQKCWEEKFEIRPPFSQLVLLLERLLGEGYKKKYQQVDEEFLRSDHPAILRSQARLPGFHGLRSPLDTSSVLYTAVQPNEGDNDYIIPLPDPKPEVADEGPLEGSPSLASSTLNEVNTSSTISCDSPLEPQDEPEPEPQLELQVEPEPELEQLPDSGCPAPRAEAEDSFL
T4 sequence (P35968 20-1356, species assumed): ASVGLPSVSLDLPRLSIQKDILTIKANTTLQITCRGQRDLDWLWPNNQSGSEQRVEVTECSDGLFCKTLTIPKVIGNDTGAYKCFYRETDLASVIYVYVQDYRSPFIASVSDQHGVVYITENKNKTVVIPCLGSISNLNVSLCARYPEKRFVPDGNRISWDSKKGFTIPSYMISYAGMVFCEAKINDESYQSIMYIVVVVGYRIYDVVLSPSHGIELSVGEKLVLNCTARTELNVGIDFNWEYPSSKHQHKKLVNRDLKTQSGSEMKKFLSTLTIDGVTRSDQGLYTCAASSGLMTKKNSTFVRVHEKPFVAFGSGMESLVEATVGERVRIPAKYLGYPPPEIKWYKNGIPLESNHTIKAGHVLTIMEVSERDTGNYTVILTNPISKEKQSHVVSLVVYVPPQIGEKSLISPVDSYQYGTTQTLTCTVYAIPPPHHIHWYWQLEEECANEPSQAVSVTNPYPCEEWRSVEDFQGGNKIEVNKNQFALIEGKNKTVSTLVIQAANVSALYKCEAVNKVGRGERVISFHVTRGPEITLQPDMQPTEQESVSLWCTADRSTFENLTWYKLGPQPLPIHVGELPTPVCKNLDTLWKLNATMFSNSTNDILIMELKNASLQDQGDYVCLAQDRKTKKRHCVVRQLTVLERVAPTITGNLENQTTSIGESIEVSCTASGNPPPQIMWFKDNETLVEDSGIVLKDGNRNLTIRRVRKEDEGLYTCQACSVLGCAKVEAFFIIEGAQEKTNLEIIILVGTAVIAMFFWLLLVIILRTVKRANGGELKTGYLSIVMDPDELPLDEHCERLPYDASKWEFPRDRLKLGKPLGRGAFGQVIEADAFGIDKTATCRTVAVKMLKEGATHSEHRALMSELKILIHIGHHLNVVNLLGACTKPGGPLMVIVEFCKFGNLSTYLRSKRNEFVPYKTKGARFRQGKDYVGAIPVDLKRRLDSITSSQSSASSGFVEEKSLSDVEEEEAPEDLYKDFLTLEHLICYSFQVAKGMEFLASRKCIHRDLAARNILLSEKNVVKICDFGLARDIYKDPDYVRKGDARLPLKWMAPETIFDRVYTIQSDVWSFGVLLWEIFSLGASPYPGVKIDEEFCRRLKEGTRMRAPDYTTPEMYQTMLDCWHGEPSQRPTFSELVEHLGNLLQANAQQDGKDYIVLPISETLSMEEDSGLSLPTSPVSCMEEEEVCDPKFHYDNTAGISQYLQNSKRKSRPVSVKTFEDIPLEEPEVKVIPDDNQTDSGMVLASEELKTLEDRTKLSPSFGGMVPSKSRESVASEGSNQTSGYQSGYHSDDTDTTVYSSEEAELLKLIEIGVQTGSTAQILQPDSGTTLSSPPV
T5 sequence (P17948 27-1338, species assumed): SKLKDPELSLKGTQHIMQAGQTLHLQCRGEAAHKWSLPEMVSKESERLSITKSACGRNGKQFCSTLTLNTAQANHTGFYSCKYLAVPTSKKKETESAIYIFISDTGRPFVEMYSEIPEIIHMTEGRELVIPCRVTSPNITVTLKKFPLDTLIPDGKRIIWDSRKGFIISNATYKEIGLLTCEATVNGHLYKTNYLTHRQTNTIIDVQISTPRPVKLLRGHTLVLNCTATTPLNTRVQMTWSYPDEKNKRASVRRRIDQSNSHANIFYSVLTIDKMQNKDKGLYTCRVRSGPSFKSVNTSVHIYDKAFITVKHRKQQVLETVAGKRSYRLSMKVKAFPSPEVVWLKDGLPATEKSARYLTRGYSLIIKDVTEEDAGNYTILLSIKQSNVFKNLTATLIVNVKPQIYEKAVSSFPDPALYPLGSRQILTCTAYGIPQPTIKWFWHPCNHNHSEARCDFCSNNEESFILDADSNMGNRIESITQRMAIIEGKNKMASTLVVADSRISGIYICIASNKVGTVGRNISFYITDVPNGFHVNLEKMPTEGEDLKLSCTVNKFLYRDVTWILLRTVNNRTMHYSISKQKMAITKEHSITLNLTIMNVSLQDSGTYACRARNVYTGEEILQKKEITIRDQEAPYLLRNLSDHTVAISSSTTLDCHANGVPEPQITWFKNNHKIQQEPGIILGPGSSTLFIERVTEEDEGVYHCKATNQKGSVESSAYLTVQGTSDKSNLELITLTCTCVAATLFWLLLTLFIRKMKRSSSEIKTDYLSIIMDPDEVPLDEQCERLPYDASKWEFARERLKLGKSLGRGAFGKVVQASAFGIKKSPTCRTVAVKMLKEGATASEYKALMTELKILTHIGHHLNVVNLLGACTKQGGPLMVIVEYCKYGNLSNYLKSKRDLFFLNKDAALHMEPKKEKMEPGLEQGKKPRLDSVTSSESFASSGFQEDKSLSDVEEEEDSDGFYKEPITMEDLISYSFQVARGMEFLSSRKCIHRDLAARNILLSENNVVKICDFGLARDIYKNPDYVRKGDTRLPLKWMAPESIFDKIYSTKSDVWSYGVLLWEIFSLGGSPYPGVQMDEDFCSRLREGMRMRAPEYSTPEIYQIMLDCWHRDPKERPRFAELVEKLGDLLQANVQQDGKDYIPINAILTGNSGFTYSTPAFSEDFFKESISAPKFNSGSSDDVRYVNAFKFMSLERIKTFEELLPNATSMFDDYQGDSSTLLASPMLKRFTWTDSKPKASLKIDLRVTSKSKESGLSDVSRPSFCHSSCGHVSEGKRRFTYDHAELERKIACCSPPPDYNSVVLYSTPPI
T2 sequence (P07948 whole entry, species assumed, the tested form may be a part): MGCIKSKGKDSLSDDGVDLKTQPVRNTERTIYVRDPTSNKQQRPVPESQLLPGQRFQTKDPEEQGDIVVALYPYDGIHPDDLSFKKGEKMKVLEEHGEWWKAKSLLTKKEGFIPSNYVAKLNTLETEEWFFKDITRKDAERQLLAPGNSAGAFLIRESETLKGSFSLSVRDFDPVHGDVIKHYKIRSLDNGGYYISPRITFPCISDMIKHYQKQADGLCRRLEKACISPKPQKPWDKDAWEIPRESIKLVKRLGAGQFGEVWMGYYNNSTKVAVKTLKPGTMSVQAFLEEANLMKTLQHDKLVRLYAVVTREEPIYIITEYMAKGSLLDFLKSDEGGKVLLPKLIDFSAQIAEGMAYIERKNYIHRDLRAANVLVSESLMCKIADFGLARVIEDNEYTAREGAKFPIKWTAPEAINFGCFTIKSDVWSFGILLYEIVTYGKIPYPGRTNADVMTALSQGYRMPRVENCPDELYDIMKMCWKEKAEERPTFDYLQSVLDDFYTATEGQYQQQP
T1 sequence (P06239 whole entry, species assumed, the tested form may be a part): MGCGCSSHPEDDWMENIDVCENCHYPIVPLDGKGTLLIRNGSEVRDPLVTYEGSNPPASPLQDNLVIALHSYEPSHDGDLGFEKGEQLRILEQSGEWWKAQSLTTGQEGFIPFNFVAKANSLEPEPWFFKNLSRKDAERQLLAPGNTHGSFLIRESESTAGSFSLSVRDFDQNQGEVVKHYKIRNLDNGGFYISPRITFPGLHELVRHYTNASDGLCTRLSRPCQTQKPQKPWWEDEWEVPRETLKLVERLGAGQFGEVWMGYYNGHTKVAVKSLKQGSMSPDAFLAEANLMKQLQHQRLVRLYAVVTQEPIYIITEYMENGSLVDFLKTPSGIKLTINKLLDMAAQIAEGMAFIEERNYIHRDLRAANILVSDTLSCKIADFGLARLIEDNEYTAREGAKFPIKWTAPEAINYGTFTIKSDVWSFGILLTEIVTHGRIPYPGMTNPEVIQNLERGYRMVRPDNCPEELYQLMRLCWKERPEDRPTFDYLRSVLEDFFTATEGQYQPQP

Row | Structure (SMILES) | IC50 (Lck) [µM] | IC50 (Lyn) [µM] | IC50 (Zap-70) [µM] | IC50 (Kdr) [µM] | IC50 (Flt-1) [µM] | IC50 (c-Met) [µM] | IC50 (AKT) [µM] | IC50 (IGFR-1) [µM] | IC50 (PDGFRB) [µM] | IC50 (Hck-1) [µM] | IC50 (FGFR1) [µM]
1 | COc1cc(Nc2ncnc(-n3ncc4ccccc43)n2)cc(OC)c1OC [Compound 240] | 1.06 to 6.34 | 1.06 to 6.34 | > 11.9 | 1.06 to 6.34 | 1.06 to 6.34 | > 11.9 | > 11.9 | > 11.9 | < 1.06 | > 11.9 | 6.34 to 9.25
2 | COc1cc(Nc2ncnc(Nc3ccc4c(c3)OCO4)n2)cc(OC)c1OC [Compound 252] | < 1.01 | < 1.01 | > 11.3 | < 1.01 | < 1.01 | > 11.3 | > 11.3 | < 1.01 | 1.01 to 6.04 | > 11.3 | 1.01 to 6.04
3 | COc1ccc(Nc2ncnc(-n3c(N)nc4ccccc43)n2)cc1O [Compound 286] | 1.14 to 6.87 | > 12.9 | > 12.9 | < 1.14 | < 1.14 | 1.14 to 6.87 | 6.87 to 10 | < 1.14 | 1.14 to 6.87 | > 12.9 | < 1.14
4 | COCCOc1ccc(Nc2ncnc(-n3c(N)nc4ccccc43)n2)cc1OC [Compound 287] | 0.982 to 5.89 | > 11 | > 11 | < 0.982 | > 11 | > 11 | > 11 | < 0.982 | > 11 | > 11 | 0.982 to 5.89
5 | COc1cc(Nc2ncnc(N3c4ccc(F)cc4CCC3C)n2)cc(OC)c1OC (stereo not drawn) [Compound 298] | 0.94 to 5.64 | < 0.94 | 8.23 to 10.6 | < 0.94 | < 0.94 | < 0.94 | > 10.6 | 5.64 to 8.23 | < 0.94 | 0.94 to 5.64 | < 0.94
6 | COc1cc(Nc2ncnc(Nc3ccc(C)c(F)c3)n2)cc(OC)c1OC [Compound 300] | 1.04 to 6.23 | < 1.04 | > 11.7 | < 1.04 | > 11.7 | 6.23 to 9.08 | > 11.7 | < 1.04 | < 1.04 | > 11.7 | 6.23 to 9.08
7 | COCCOc1ccc(Nc2ncnc(-n3c(N)nc4ccccc43)n2)cc1OCCOC [Compound 302] | > 9.97 | > 9.97 | > 9.97 | 0.886 to 5.32 | > 9.97 | > 9.97 | > 9.97 | < 0.886 | > 9.97 | > 9.97 | 0.886 to 5.32
8 | COc1cc(Nc2ncnc(Nc3ccc(C)c(NS(C)(=O)=O)c3)n2)cc(OC)c1OC [Compound 305] | 0.869 to 5.21 | < 0.869 | > 9.77 | < 0.869 | 0.869 to 5.21 | 7.6 to 9.77 | > 9.77 | 5.21 to 7.6 | < 0.869 | 5.21 to 7.6 | 0.869 to 5.21
9 | COc1cc(Nc2ncnc(Nc3ccc(Cl)cc3F)n2)cc(OC)c1OC [Compound 306] | 0.986 to 5.91 | < 0.986 | > 11.1 | < 0.986 | 0.986 to 5.91 | 5.91 to 8.62 | > 11.1 | < 0.986 | < 0.986 | 8.62 to 11.1 | 0.986 to 5.91
10 | COc1cc(Nc2ncnc(Nc3cc(-c4ccco4)n[nH]3)n2)cc(OC)c1OC [Compound 308] | 0.977 to 5.86 | < 0.977 | > 11 | < 0.977 | < 0.977 | < 0.977 | 8.55 to 11 | < 0.977 | < 0.977 | 0.977 to 5.86 | < 0.977
11 | COc1cc(Nc2ncnc(Nc3nnc(-c4ccccc4)[nH]3)n2)cc(OC)c1OC [Compound 311] | > 10.7 | > 10.7 | > 10.7 | 0.951 to 5.71 | > 10.7 | 0.951 to 5.71 | > 10.7 | > 10.7 | > 10.7 | > 10.7 | > 10.7
12 | COc1cc(Nc2ncnc(Nc3cc(C(C)(C)C)[nH]n3)n2)cc(OC)c1OC [Compound 313] | 1 to 6.01 | < 1 | > 11.3 | 1 to 6.01 | 6.01 to 8.76 | < 1 | > 11.3 | < 1 | 1 to 6.01 | 6.01 to 8.76 | 1 to 6.01
13 | COc1cc(Nc2ncnc(N3CCCC4CCCCC43)n2)cc(OC)c1OC (stereo not drawn) [Compound 314] | < 1 | < 1 | > 11.3 | < 1 | 1 to 6.01 | 1 to 6.01 | > 11.3 | > 11.3 | 1 to 6.01 | 6.01 to 8.76 | 6.01 to 8.76
14 | COC(=O)c1sccc1Nc1ncnc(Nc2cc(OC)c(OC)c(OC)c2)n1 [Compound 315] | 8.38 to 10.8 | > 10.8 | 8.38 to 10.8 | < 0.958 | > 10.8 | 8.38 to 10.8 | > 10.8 | > 10.8 | 0.958 to 5.75 | > 10.8 | > 10.8
15 | COc1cc(Nc2ncnc(Nc3cc(F)ccc3F)n2)cc(OC)c1OC [Compound 316] | > 11.6 | 1.03 to 6.16 | > 11.6 | < 1.03 | 8.99 to 11.6 | > 11.6 | > 11.6 | < 1.03 | < 1.03 | > 11.6 | > 11.6
